Experimental data as given in US10092570B2 (Incyte Corporation, priority 2011, dated 2018).
pIC50: −log10 of the molar value. Structures can show the parent of a compound that is named as a salt.

Molecular target: PI3Kδ (p110δ/p85α) (Homo sapiens (Human), UniProt O00329)
Assay: Example A3: PI3Kδ scintillation proximity assay
Format: biochemical
Settings: scintillation proximity assay, 20 μM ATP, 4 nM PI3Kδ; read-out: PI3Kδ SPA IC50
Experimental: [γ-^33P]ATP (10 mCi/mL) was purchased from Perkin-Elmer (Waltham, Mass.). […] PI3Kδ (p110δ/p85α) was purchased from Millipore (Bedford, Mass.). ATP, MgCl2, DTT, EDTA, MOPS and CHAPS were purchased from Sigma-Aldrich (St. Louis, Mo.). Wheat Germ Agglutinin (WGA) YSi SPA Scintillation Beads was purchased from GE healthcare life sciences (Piscataway, N.J.).
The kinase reaction was conducted in polystyrene 384-well matrix white plate from Thermo Fisher Scientific in a final volume of 25 μL. Inhibitors were first diluted serially in DMSO and added to the plate wells before the addition of other reaction components. The final concentration of DMSO in the assay was 0.5%. The PI3K assays were carried out at room temperature in 20 mM MOPS, pH 6.7, 10 mM MgCl2, 5 mM DTT and CHAPS 0.03%. Reactions were initiated by the addition of ATP, the final reaction mixture consisted of 20 μM PIP2, 20 μM ATP, 0.2 μCi [γ-^33P] ATP, 4 nM PI3Kδ. […] 25 mM EDTA, 400 μM ATP. The final concentration of SPA beads was 1.0 mg/mL. After the plate sealing, plates were shaken overnight at room temperature and centrifuged at 1800 rpm for 10 minutes, the radioactivity of the product was determined by scintillation counting on Topcount (Perkin-Elmer). IC50 determination was performed by fitting the curve of percent control activity versus the log of the inhibitor concentration using the GraphPad Prism 3.0 software.

PI3Kδ (p110δ/p85α), sequence (O00329 whole entry): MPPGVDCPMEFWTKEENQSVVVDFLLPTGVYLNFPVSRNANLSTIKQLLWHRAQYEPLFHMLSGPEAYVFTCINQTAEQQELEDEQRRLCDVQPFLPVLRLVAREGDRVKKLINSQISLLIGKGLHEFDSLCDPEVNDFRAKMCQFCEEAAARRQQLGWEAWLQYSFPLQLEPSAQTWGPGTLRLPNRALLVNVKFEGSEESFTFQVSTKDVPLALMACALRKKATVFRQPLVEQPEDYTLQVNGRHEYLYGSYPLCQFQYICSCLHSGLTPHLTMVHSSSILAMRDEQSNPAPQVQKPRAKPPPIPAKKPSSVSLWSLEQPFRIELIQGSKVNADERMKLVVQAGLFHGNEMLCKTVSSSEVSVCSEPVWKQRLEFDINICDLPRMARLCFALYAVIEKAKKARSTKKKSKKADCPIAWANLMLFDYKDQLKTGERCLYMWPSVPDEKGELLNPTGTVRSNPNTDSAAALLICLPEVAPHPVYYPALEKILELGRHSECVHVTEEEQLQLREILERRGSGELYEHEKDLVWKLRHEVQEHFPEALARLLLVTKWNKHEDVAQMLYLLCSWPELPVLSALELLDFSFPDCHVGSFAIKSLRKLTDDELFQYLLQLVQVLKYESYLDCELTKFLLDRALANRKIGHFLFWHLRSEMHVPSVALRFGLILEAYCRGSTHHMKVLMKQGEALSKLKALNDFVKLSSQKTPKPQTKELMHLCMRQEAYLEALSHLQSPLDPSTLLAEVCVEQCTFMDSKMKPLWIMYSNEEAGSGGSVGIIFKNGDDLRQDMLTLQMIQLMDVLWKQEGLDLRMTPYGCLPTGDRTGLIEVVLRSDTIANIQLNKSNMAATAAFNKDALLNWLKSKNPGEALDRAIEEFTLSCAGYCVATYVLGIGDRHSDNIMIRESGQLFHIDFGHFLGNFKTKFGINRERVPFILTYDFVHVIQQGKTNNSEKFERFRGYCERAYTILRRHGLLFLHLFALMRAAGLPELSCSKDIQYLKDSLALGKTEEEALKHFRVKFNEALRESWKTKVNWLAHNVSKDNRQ
PI3Kδ (p110δ/p85α), sequence (P27986 whole entry partner): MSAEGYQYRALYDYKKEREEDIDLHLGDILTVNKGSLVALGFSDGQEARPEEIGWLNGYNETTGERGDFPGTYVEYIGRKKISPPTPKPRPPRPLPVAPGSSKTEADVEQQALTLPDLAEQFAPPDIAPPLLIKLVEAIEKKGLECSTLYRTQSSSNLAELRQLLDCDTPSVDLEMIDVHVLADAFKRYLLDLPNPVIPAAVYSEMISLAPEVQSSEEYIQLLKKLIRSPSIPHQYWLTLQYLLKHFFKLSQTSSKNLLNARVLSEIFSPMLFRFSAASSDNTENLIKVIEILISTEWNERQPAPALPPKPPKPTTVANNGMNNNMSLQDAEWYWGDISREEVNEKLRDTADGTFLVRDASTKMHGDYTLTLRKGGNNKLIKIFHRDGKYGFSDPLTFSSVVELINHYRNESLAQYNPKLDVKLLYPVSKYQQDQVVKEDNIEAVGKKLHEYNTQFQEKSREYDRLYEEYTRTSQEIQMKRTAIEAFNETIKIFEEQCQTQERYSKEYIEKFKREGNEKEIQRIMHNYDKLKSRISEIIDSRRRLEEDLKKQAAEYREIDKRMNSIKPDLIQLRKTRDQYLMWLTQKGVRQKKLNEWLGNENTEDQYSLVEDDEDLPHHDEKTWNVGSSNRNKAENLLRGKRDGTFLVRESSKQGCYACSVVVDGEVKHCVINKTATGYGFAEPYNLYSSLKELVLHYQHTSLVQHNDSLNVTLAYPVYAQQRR

SMILES | pIC50
CCOc1c(C(C)n2nc(C)c3c(N)ncnc32)cc(Cl)c(F)c1C1COC(=O)N1 (single isomer, unassigned) [Example 353, 4-{3-[1-(4-amino-3-methyl-1H-pyrazolo[3,4-d]pyrimidin-1-yl)ethyl]-5-chloro-2-ethoxy-6-fluorophenyl}-1,3-oxazolidin-2-one] | < 6.30
CCOc1c(C(C)n2nc(C)c3c(N)ncnc32)cc(Cl)c(C#N)c1C1CN(S(=O)(=O)CC)C1 (single isomer, unassigned) [Example 249, 4-[1-(4-Amino-3-methyl-1H-pyrazolo[3,4-d]pyrimidin-1-yl)ethyl]-6-chloro-3-ethoxy-2-[1-(ethylsulfonyl)azetidin-3-yl]benzonitrile] | > 8.00
CNC(=O)c1cc(-c2c(C)c(Cl)cc(C(C)n3nc(C)c4c(N)ncnc43)c2OC)ccn1 (racemic) [Example 17, 4-(3-(1-(4-amino-3-methyl-1H-pyrazolo[3,4-d]pyrimidin-1-yl)ethyl)-5-chloro-2-methoxy-6-methylphenyl)-N-methylpicolinamide] | > 8.00
COc1c(C(C)n2nc(C)c3c(N)ncnc32)cc(Cl)c(C)c1-c1ccnc(C(=O)N(C)C)c1 (stereo not drawn) [Example 16, 4-{3-[1-(4-Amino-3-methyl-1H-pyrazolo[3,4-d]pyrimidin-1-yl)ethyl]-5-chloro-2-methoxy-6-methylphenyl}-N,N-dimethylpyridine-2-carboxamide] | > 8.00
CCOc1c(C(C)n2nc(C)c3c(N)ncnc32)cc(C)c(C#N)c1-c1cnn(C)c1 (racemic) [Example 343, 4-[1-(4-amino-3-methyl-1H-pyrazolo[3,4-d]pyrimidin-1-yl)ethyl]-3-ethoxy-6-methyl-2-(1-methyl-1H-pyrazol-4-yl)benzonitrile] | > 8.00
CCOc1c(C(C)n2nc(C(F)F)c3c(N)ncnc32)cc(Cl)c(F)c1C1CN(C[C@@H](C)O)C1 (stereo partly drawn) [Example 155, (2R)-1-[3-(3-{1-[4-Amino-3-(difluoromethyl)-1H-pyrazolo[3,4-d]pyrimidin-1-yl]ethyl}-5-chloro-2-ethoxy-6-fluorophenyl)azetidin-1-yl]propan-2-ol] | > 8.00
COc1c(C(C)n2nc(C)c3c(N)ncnc32)cc(Cl)c(C)c1C1CN(C2COC2)C1 (racemic) [Example 63, 1-{1-[5-chloro-2-methoxy-4-methyl-3-(1-oxetan-3-ylazetidin-3-yl)phenyl]ethyl}-3-methyl-1H-pyrazolo[3,4-d]pyrimidin-4-amine] | > 8.00
COc1c(C(C)n2nc(C)c3c(N)ncnc32)cc(Cl)c(C#N)c1C1CN(C2COC2)C1 (single isomer, unassigned) [Example 274, 4-[1-(4-Amino-3-methyl-1H-pyrazolo[3,4-d]pyrimidin-1-yl)ethyl]-6-chloro-3-methoxy-2-(1-oxetan-3-ylazetidin-3-yl)benzonitrile] | > 8.00
COc1c(C(C)n2nc(C(F)F)c3c(N)ncnc32)cc(C#N)c(C)c1C1CN(CC(C)(C)O)C1 (racemic) [Example 133, 5-{1-[4-Amino-3-(difluoromethyl)-1H-pyrazolo[3,4-d]pyrimidin-1-yl]ethyl}-3-[1-(2-hydroxy-2-methylpropyl)azetidin-3-yl]-4-methoxy-2-methylbenzonitrile] | > 8.00
COc1c(C(C)n2nc(C)c3c(N)ncnc32)cc(Cl)c(C)c1C1CNC(=O)O1 (stereo not drawn) [Example 325, 5-{3-[1-(4-Amino-3-methyl-1H-pyrazolo[3,4-d]pyrimidin-1-yl)ethyl]-5-chloro-2-methoxy-6-methylphenyl}-1,3-oxazolidin-2-one] | > 8.00
CCC(=O)N1CC(c2c(C)c(Cl)cc(C(C)n3nc(C)c4c(N)ncnc43)c2OC)C1 (stereo not drawn) [Example 3, 1-{1-[5-Chloro-2-methoxy-4-methyl-3-(1-propionylazetidin-3-yl)phenyl]ethyl}-3-methyl-1H-pyrazolo[3,4-d]pyrimidin-4-amine trifluoroacetate] | > 8.00
CCOc1c(C(C)n2nc(C)c3c(N)ncnc32)cc(Cl)c(C)c1C1CN(C(=O)c2cnn(C)c2)C1 (stereo not drawn) [Example 101, 1-[1-(5-Chloro-2-ethoxy-4-methyl-3-{1-[(1-methyl-1H-pyrazol-4-yl)carbonyl]azetidin-3-yl}phenyl)ethyl]-3-methyl-1H-pyrazolo[3,4-d]pyrimidin-4-amine trifluoroacetate] | > 8.00
COc1c(C(C)n2nc(C)c3c(N)ncnc32)cc(Cl)c(C)c1-c1cncc(C(=O)N(C)C)c1 (single isomer, unassigned) [Example 65, 5-{3-[1-(4-amino-3-methyl-1H-pyrazolo[3,4-d]pyrimidin-1-yl)ethyl]-5-chloro-2-methoxy-6-methylphenyl}-N,N-dimethylnicotinamide] | > 8.00
CCOc1c(C(C)n2nc(I)c3c(N)ncnc32)cc(Cl)c(C)c1-c1ccc(C(=O)N(C)C)nc1 (racemic) [Example 15, 5-{3-[1-(4-Amino-3-iodo-1H-pyrazolo[3,4-d]pyrimidin-1-yl)ethyl]-5-chloro-2-ethoxy-6-methylphenyl}-N,N-dimethylpyridine-2-carboxamide] | > 8.00
COc1c(C(C)n2nc(C(F)F)c3c(N)ncnc32)cc(C#N)c(C)c1C1CN(CC(F)(F)F)C1 (racemic) [Example 129, 5-{1-[4-Amino-3-(difluoromethyl)-1H-pyrazolo[3,4-d]pyrimidin-1-yl]ethyl}-4-methoxy-2-methyl-3-[1-(2,2,2-trifluoroethyl)azetidin-3-yl]benzonitrile] | > 8.00

The next lines start with the values.

pIC50 | SMILES
> 8.00 | CCOc1c(C(C)n2nc(C)c3c(N)ncnc32)cc(Cl)c(C)c1C1CN(C(=O)[C@H](C)O)C1 (stereo partly drawn) [Example 99, (2S)-1-(3-{3-[1-(4-Amino-3-methyl-1H-pyrazolo[3,4-d]pyrimidin-1-yl)ethyl]-5-chloro-2-ethoxy-6-methylphenyl}azetidin-1-yl)-1-oxopropan-2-ol trifluoroacetate]
> 8.00 | COc1c(C(C)n2nc(C)c3c(N)ncnc32)cc(Cl)c(C)c1C1CN(C)C1 (racemic) [Example 5, 1-{1-[5-chloro-2-methoxy-4-methyl-3-(1-methylazetidin-3-yl)phenyl]ethyl}-3-methyl-1H-pyrazolo[3,4-d]pyrimidin-4-amine]
> 8.00 | CNC(=O)N1CC(c2c(C)c(Cl)cc(C(C)n3nc(C)c4c(N)ncnc43)c2OC)C1 (racemic) [Example 10, 3-{3-[1-(4-Amino-3-methyl-1H-pyrazolo[3,4-d]pyrimidin-1-yl)ethyl]-5-chloro-2-methoxy-6-methylphenyl}-N-methylazetidine-1-carboxamide]
> 8.00 | COc1c(C(C)n2nc(C)c3c(N)ncnc32)cc(Cl)c(F)c1C1CN(CCO)C1 (racemic) [Example 71, 2-(3-{3-[1-(4-Amino-3-methyl-1H-pyrazolo[3,4-d]pyrimidin-1-yl)ethyl]-5-chloro-6-fluoro-2-methoxyphenyl}azetidin-1-yl)ethanol]
> 8.00 | CCOc1c(C(C)n2nc(C)c3c(N)ncnc32)cc(Cl)c(C)c1C1CN(C(=O)[C@@H](C)O)C1 (stereo partly drawn) [Example 100, (2R)-1-(3-{3-[1-(4-Amino-3-methyl-1H-pyrazolo[3,4-d]pyrimidin-1-yl)ethyl]-5-chloro-2-ethoxy-6-methylphenyl}azetidin-1-yl)-1-oxopropan-2-ol]
> 8.00 | COc1c(C(C)n2nc(C)c3c(N)ncnc32)cc(Cl)c(C)c1C1CN(CC(C)(C)O)C1 (stereo not drawn) [Example 158, 1-(3-{3-[1-(4-Amino-3-methyl-1H-pyrazolo[3,4-d]pyrimidin-1-yl)ethyl]-5-chloro-2-methoxy-6-methylphenyl}azetidin-1-yl)-2-methylpropan-2-ol]
